The values that follow come from patent publication US5104888A, “Thiazolidine derivatives, their preparation and use” (Sankyo Company, Limited, priority 1985, dated 1992).

One series addresses T1, Aldose reductase (Bos taurus, UniProt P16116).
T1 construct: Aldose reductase was separated and partially purified from bovine lenses; from tissue; host or cells: bovine lens
The series can be described thus: Effect on Aldose Reductase (inhibition of enzyme activity, photometric). In kind it is biochemical. The settings on record: 1×10^-5 M, aldose reductase partially purified from bovine lenses; read-out: Percent Inhibition of aldose reductase. The method, then: Aldose reductase was separated and partially purified from bovine lenses by the method of Hayman and Kinoshita [J. Biol. Chem., 240, 877 (1965)]. Enzyme activities were photometrically determined by the method of Varma et al. [Biochem, Pharmac., 25, 2505 (1976)].
The inhibition of aldose reductase activity was determined employing each test compound in a concentration of 1×10^-5 M, and the results are as shown in Table 30.
As a control, the known compound, 5-[4-(1-methylcyclohexylmethoxy)benzyl]thiazolidine-2,4-dione ("Cpd. A") was tested by the same method and the result is also shown in Table 30: […]

Series [1] concerns male mice of the ddY strain. The series can be described thus: Toxicity (acute oral, one-week observation). The series is classed as in vivo. The procedure:
The test animals used were male mice of the ddY strain. The animals were employed in groups of 3. The animals of each group were administered orally with a single test compound in a dose of 300 mg/kg body weight. The compounds employed were those prepared as described in Examples 3, 4, 5 and 13.

Setting [2] is: oral, 300 mg/kg body weight, male ddY mice, groups of 3, 1 week.

In the case of `CC1(COc2ccc(CC3SC(=O)NC3=O)cc2)CCCCC1` (stereo not drawn) [Cpd. A, 5-[4-(1-methylcyclohexylmethoxy)benzyl]thiazolidine-2,4-dione, reference compound], the inhibition (in general, how much of the control response was suppressed) at 10 µM at Aldose reductase was determined as 16.2%.

Turning to `CCCCCCCCC1(COc2ccc(CC3SC(=O)NC3=O)cc2)CCc2c(C)c(O)c(C)c(C)c2O1` (stereo not drawn) [Example 3, 5-[4-(6-Hydroxy-5,7,8-trimethyl-2-octylchroman-2-yl-methoxy)benzyl]thiazolidine-2,4-dione], in series [1] (setting [2]), the “abnormalities attributable to the test compounds during observation” value (shortened to “abnormalities attributable”) is reported as “no abnormalities” and the “survival at the end of the 1 week observation period” value (“survival at the end” below) is “All animals were alive”.

Consider `CC(=O)Oc1cc2c(cc1C(C)(C)CC(C)(C)C)OC(C)(COc1ccc(CC3SC(=O)NC3=O)cc1)CC2` (stereo not drawn) [Example 4, 5-[4-(6-Acetoxy-2-methyl-7-(1,1,3,3-tetramethylbutyl)-chroman-2-ylmethoxy)benzyl]thiazolidine-2,4dione], for which, in series [1] (setting [2]), the “abnormalities attributable” value is listed as “no abnormalities” and the “survival at the end” value is “All animals were alive”.

Regarding `CC(C)(C)CC(C)(C)c1cc2c(cc1O)CCC(C)(COc1ccc(CC3SC(=O)NC3=O)cc1)O2` (stereo not drawn) [Example 5, 5-{4-[6Hydroxy-2-methyl-7-(1,1,3,3-tetramethylbutyl)-chroman-2-ylmethoxy]benzyl}thiazolidine-2,4-dione], in series [1] (setting [2]), the “abnormalities attributable” value is on record as “no abnormalities” and the “survival at the end” value is listed as “All animals were alive”.

Take `Cc1c(C)c2c(c(C)c1O)/C(=N/O)CC(C)(COc1ccc(CC3SC(=O)NC3=O)cc1)O2` (stereo not drawn) [Example 13, 5-{4-[6-Hydroxy-4-(E)-hydroxyimino-2,5,7,8-tetramethylchroman-2-ylmethoxy]benzyl}thiazolidine-2,4-dione]: the inhibition at 10 µM on Aldose reductase came out at 55.5%. Besides, in series [1] (mouse, in vivo, po, 300 mg/kg), the “abnormalities attributable” value was “no abnormalities” and the “survival at the end” value is “All animals were alive”.

As to `Cc1c(C)c2c(c(C)c1OCC(=O)O)CCC(C)(COc1ccc(CC3SC(=O)NC3=O)cc1)O2` (stereo not drawn) [Example 58, α-{2-[4-(2,4-Dioxothiazolidin-5-ylmethyl)phenoxymethyl]-2,5,7,8-tetramethylchroman-6yloxy}acetic acid], the inhibition at 10 µM on Aldose reductase came to 51.6%.

On to `Cc1c(C)c2c(c(C)c1OCC(=O)O)C(=O)CC(C)(COc1ccc(CC3SC(=O)NC3=O)cc1)O2` (stereo not drawn) [Example 59, α-{2-[4-(2,4-Dioxothiazolidin-5-ylmethyl)-phenoxymethyl]-2,5,7,8-tetramethyl-4-oxochroman-6-yloxy}acetic acid], for which, on Aldose reductase, the inhibition at 10 µM was 79.5%.
